What all share (type): in vivo
For one assay, the system named is Boophilus microplus. The experiment in a line: Boophilus microplus injection test. Conditions: application rate 20 μg/animal; injection into abdomen; assessed after 7 days. On the procedure: Boophilus microplus—Injection Test
(§1) Solvent: dimethyl sulphoxide
To produce an appropriate active ingredient formulation, 10 mg of active ingredient are mixed with 0.5 ml of solvent and the concentrate is diluted with solvent to the desired concentration.
1 μl of the active ingredient solution is injected into the abdomen of 5 engorged adult female cattle ticks (Boophilus microplus). The animals are transferred into dishes and kept in a climate-controlled room.
Efficacy is assessed after 7 days by laying of fertile eggs. Eggs which are not visibly fertile are stored in a climate-controlled cabinet until the larvae hatch after about 42 days. An efficacy of 100% means that none of the ticks has laid any fertile eggs; 0% means that all the eggs are fertile.

A further assay relates to Ctenocephalides felis. The experiment in a line: Ctenocephalides felis oral test. To be noted: application rate 100 ppm in citrated cattle blood; after 2 days. How it is done: Ctenocephalides felis—Oral Test
as §1
For the purpose of producing an appropriate active ingredient formulation, 10 mg of active ingredient are mixed with 0.5 ml of dimethyl sulphoxide. Dilution with citrated cattle blood gives the desired concentration.
About 20 unfed adult cat fleas (Ctenocephalides felis) are placed into a chamber which is closed at the top and bottom with gauze. A metal cylinder whose bottom end is closed with parafilm is placed onto the chamber. The cylinder contains the blood/active ingredient preparation, which can be imbibed by the fleas through the parafilm membrane.
After 2 days, the kill in % is determined. 100% means that all of the fleas have been killed; 0% means that none of the fleas have been killed.

The subject of a further assay is Lucilia cuprina. The assay is described as follows: Lucilia cuprina test. Conditions: application rate 100 ppm; L1 larvae; after 2 days. How it is done:
as §1
To produce an appropriate active ingredient formulation, 10 mg of active ingredient are mixed with 0.5 ml of dimethyl sulphoxide, and the concentrate is diluted with water to the desired concentration.
About 20 L1 larvae of the Australian sheep blowfly (Lucilia cuprina) are transferred into a test vessel containing minced horsemeat and the active ingredient preparation of the desired concentration.
After 2 days, the kill in % is determined. 100% means that all the larvae have been killed and 0% means that none of the larvae have been killed.

For another assay, the system named is Spodoptera frugiperda. The assay is described as follows: Spodoptera frugiperda spray test. Conditions: caterpillars, after 7 days. How it is done:
Spodoptera frugiperda—Spray Test
(§2) To produce an appropriate active ingredient formulation, 1 part by weight of active ingredient is dissolved using the specified parts by weight of solvent and made up with water containing an emulsifier concentration of 1000 ppm until the desired concentration is attained. To produce further test concentrations, the preparation is diluted with emulsifier-containing water.
Leaf discs of maize (Zea mays) are sprayed with an active ingredient formulation of the desired concentration and, after drying, populated with caterpillars of the armyworm (Spodoptera frugiperda).
After 7 days, efficacy in % is determined. 100% means that all the caterpillars have been killed; 0% means that no caterpillars have been killed.

The next assay relates to Tetranychus urticae. The assay is described as follows: Tetranychus urticae spray test, OP-resistant. Conditions: application rate 100 g/ha; after 6 days. How it is done:
Tetranychus urticae—Spray Test, OP-Resistant
as §2
Discs of bean leaves (Phaseolus vulgaris) infested by all stages of the greenhouse red spider mite (Tetranychus urticae) are sprayed with an active ingredient formulation of the desired concentration.
After 6 days, efficacy in % is determined. 100% means that all the spider mites have been killed; 0% means that none of the spider mites have been killed.

The subject of the next assay is Rhipicephalus sanguineus. The assay is described as follows: Rhipicephalus sanguineus in vitro contact test with adult brown dog ticks. To be noted: after 48 h, ticks dead or moribund. How it is done: Rhipicephalus sanguineus—In Vitro Contact Tests with Adult Brown Dog Ticks
For the coating of the test tubes, 9 mg of active ingredient are first dissolved in 1 ml of acetone p.a. and then diluted to the desired concentration with acetone p.a. 250 μl of the solution are distributed homogeneously on the inner walls and base of a 25 ml test tube by turning and rocking on an orbital shaker (rocking rotation at 30 rpm for 2 h). With 900 ppm active ingredient solution and internal surface 44.7 cm^2, given homogeneous distribution, an area-based dose of 5 μg/cm^2 is achieved.
After the solvent has evaporated off, the tubes are populated with 5-10 adult dog ticks (Rhipicephalus sanguineus), sealed with a perforated plastic lid and incubated in a horizontal position in the dark at room temperature and ambient humidity. After 48 h, efficacy is determined. To this end, the ticks are knocked to the floor of the tube and incubated on a hotplate at 45-50° C. for not more than 5 min. Ticks which remain motionless on the floor or move in such an uncoordinated manner that they are unable to deliberately avoid the heat by climbing upwards are considered to be dead or moribund.
An efficacy of 100% means that all the ticks were dead or moribund. 0% efficacy means that none of the ticks had been harmed.

In a further assay the test system is Phaedon cochleariae. The assay is described as follows: Phaedon cochleariae spray test. Conditions: larvae, after 7 days. On the procedure:
Phaedon cochleariae—Spray Test
as §2
Discs of Chinese cabbage leaves (Brassica pekinensis) are sprayed with an active ingredient formulation of the desired concentration and, after drying, populated with larvae of the mustard beetle (Phaedon cochleariae).
After 7 days, efficacy in % is determined. 100% means that all the beetle larvae have been killed; 0% means that no beetle larvae have been killed.

Setting [1] is: application rate 5 μg/cm^2 (500 g/ha).

Regarding `CCC(C)C(=O)Nc1cc(-c2cnn(-c3c(C(F)(F)F)c(C(F)(F)C(F)(F)F)nn3C)c2)ccc1F` (racemic) [Example 1-052], the “efficacy (laying of fertile eggs)” value in the assay on Boophilus microplus stood at 100%. The “efficacy (kill in %)” value with Ctenocephalides felis worked out at 90%; in the assay with Lucilia cuprina, 100%. Also, the efficacy in the assay on Spodoptera frugiperda (application rate 100 g/ha) and in the assay on Tetranychus urticae was 100% in each case.

Consider `CC(C(=O)Nc1cc(-c2cnn(-c3c(C(F)(F)F)c(C(F)(F)C(F)(F)F)nn3C)c2)ccc1F)c1ccccc1` (racemic) [Example 1-108], for which the “efficacy (laying of fertile eggs)” value with Boophilus microplus is 100%. In the assay with Tetranychus urticae, the efficacy is 100%.

For `Cn1nc(C(F)(F)C(F)(F)F)c(C(F)(F)F)c1-n1cc(-c2cccc(NC(=O)c3cc(Cl)nc(Cl)c3)c2)cn1` [Example 1-011], the efficacy was 80% in the assay with Rhipicephalus sanguineus (setting [1]), 100% in the assay with Phaedon cochleariae (application rate 100 g/ha) and 90% in the assay with Tetranychus urticae. Further, in the assay with Boophilus microplus, the “efficacy (laying of fertile eggs)” value was 100%. The “efficacy (kill in %)” value with Ctenocephalides felis and in the assay on Lucilia cuprina was 100% each time.

Take `Cn1nc(C(F)(F)C(F)(F)F)c(C(F)(F)F)c1-n1cc(-c2cccc(NC(=O)c3c(F)cccc3F)c2)cn1` [Example 1-015]: the efficacy worked out at 80% in the assay with Rhipicephalus sanguineus (setting [1]), 100% in the assay with Phaedon cochleariae (application rate 100 g/ha), 100% in the assay with Spodoptera frugiperda (application rate 100 g/ha) and 100% in the assay on Tetranychus urticae. Besides, the “efficacy (laying of fertile eggs)” value with Boophilus microplus came out at 100%. Also, the “efficacy (kill in %)” value with Ctenocephalides felis and in the assay on Lucilia cuprina was 100% each time.

Regarding `Cn1nc(C(F)(F)C(F)(F)F)c(C(F)(F)F)c1-n1cc(-c2cccc(NC(=O)c3sccc3Cl)c2)cn1` [Example 1-018], the “efficacy (laying of fertile eggs)” value in the assay on Boophilus microplus came to 100%. Also, the results for the efficacy in the assay with Phaedon cochleariae (application rate 500 g/ha), with Spodoptera frugiperda (application rate 500 g/ha) and in the assay on Tetranychus urticae were 100%, 100% and 90%, respectively.

In the case of `Cn1nc(C(F)(F)C(F)(F)F)c(C(F)(F)F)c1-n1cc(-c2cccc(NC(=O)C3(C#N)CC3)c2)cn1` [Example 1-029], the efficacy with Rhipicephalus sanguineus (setting [1]) was 100%; in the assay on Phaedon cochleariae (application rate 500 g/ha), 83%; in the assay with Spodoptera frugiperda (application rate 500 g/ha), 100%; in the assay with Tetranychus urticae it was 100%. The “efficacy (laying of fertile eggs)” value in the assay on Boophilus microplus worked out at 100%. The “efficacy (kill in %)” value in the assay on Ctenocephalides felis and in the assay with Lucilia cuprina was 100% in each case.

As for `Cc1cc(C(=O)Nc2cc(-c3cnn(-c4c(C(F)(F)F)c(C(F)(F)C(F)(F)F)nn4C)c3)ccc2F)cc(Cl)n1` [Example 1-043], the efficacy in the assay on Rhipicephalus sanguineus (application rate 1 μg/cm^2 (100 g/ha)) amounted to 80%; with Phaedon cochleariae (application rate 100 g/ha), 100%; in the assay with Spodoptera frugiperda (application rate 100 g/ha) it was 100%; in the assay on Tetranychus urticae, 100%. In the assay on Boophilus microplus, the “efficacy (laying of fertile eggs)” value is given as 100%. For the same compound, the “efficacy (kill in %)” value in the assay on Ctenocephalides felis and with Lucilia cuprina was 100% each time.

Turning to `Cn1nc(C(F)(F)C(F)(F)F)c(C(F)(F)F)c1-n1cc(-c2ccc(F)c(NC(=O)C(C)(C)CF)c2)cn1` [Example 1-046], the “efficacy (laying of fertile eggs)” value in the assay on Boophilus microplus stood at 100%. Also, the “efficacy (kill in %)” value in the assay with Lucilia cuprina stood at 100%. This compound also gave an efficacy in the assay on Tetranychus urticae of 100%.

For the compound `Cn1nc(C(F)(F)C(F)(F)F)c(C(F)(F)F)c1-n1cc(-c2ccc(F)c(NC(=O)C3(C)CCCCC3)c2)cn1` [Example 1-053], in the assay with Tetranychus urticae, the efficacy turned out to be 100%.

For `CN(C)c1ccc(C(=O)Nc2cc(-c3cnn(-c4c(C(F)(F)F)c(C(F)(F)C(F)(F)F)nn4C)c3)ccc2F)cc1` [Example 1-054], the efficacy in the assay on Rhipicephalus sanguineus (setting [1]), in the assay on Phaedon cochleariae (application rate 100 g/ha), in the assay on Spodoptera frugiperda (application rate 100 g/ha) and with Tetranychus urticae was 100% in each case. Besides, the “efficacy (laying of fertile eggs)” value in the assay with Boophilus microplus amounted to 100%. The “efficacy (kill in %)” value in the assay with Lucilia cuprina is listed as 100%.

`CC(C)C(C)(C)C(=O)Nc1cc(-c2cnn(-c3c(C(F)(F)F)c(C(F)(F)C(F)(F)F)nn3C)c2)ccc1F` [Example 1-065]: the “efficacy (laying of fertile eggs)” value with Boophilus microplus was 100%. In addition, the “efficacy (kill in %)” value in the assay on Ctenocephalides felis worked out at 90%; in the assay with Lucilia cuprina, 80%. In the assay with Tetranychus urticae, this compound gave an efficacy of 100%.

Turning to `Cc1occc1C(=O)Nc1cc(-c2cnn(-c3c(C(F)(F)F)c(C(F)(F)C(F)(F)F)nn3C)c2)ccc1F` [Example 1-067], in the assay on Boophilus microplus, the “efficacy (laying of fertile eggs)” value amounted to 100%. The “efficacy (kill in %)” value in the assay with Ctenocephalides felis and with Lucilia cuprina was 100% each time. Moreover, the efficacy in the assay on Phaedon cochleariae (application rate 100 g/ha), with Spodoptera frugiperda (application rate 100 g/ha) and in the assay on Tetranychus urticae was 100% each time.

For `Cn1nc(C(F)(F)C(F)(F)F)c(C(F)(F)F)c1-n1cc(-c2ccc(F)c(NC(=O)C(C)(C)C)c2)cn1` [Example 1-078], the efficacy in the assay on Rhipicephalus sanguineus (setting [1]), in the assay on Spodoptera frugiperda (application rate 100 g/ha) and in the assay on Tetranychus urticae was 100% throughout. Further, the “efficacy (laying of fertile eggs)” value in the assay on Boophilus microplus is given as 100%. Further, the results for the “efficacy (kill in %)” value in the assay on Ctenocephalides felis and in the assay on Lucilia cuprina were 80% and 100%, respectively.

Take `Cc1ccc(C(=O)Nc2cc(-c3cnn(-c4c(C(F)(F)F)c(C(F)(F)C(F)(F)F)nn4C)c3)ccc2F)cc1F` [Example 1-092]: the efficacy in the assay with Rhipicephalus sanguineus (setting [1]), in the assay on Phaedon cochleariae (application rate 100 g/ha), in the assay on Spodoptera frugiperda (application rate 100 g/ha) and in the assay with Tetranychus urticae was 100% throughout. Besides, the “efficacy (laying of fertile eggs)” value in the assay on Boophilus microplus is reported as 100%. Also, the “efficacy (kill in %)” value with Ctenocephalides felis and in the assay on Lucilia cuprina was 100% throughout.

In the case of `Cn1nc(C(F)(F)C(F)(F)F)c(C(F)(F)F)c1-n1cc(-c2ccc(F)c(NC(=O)c3ccc4c(c3)OCO4)c2)cn1` [Example 1-093], the efficacy in the assay with Rhipicephalus sanguineus (setting [1]), with Phaedon cochleariae (application rate 100 g/ha), in the assay with Spodoptera frugiperda (application rate 100 g/ha) and in the assay with Tetranychus urticae was 100% in each case. Moreover, the “efficacy (laying of fertile eggs)” value in the assay with Boophilus microplus is listed as 100%. The “efficacy (kill in %)” value in the assay with Ctenocephalides felis and in the assay with Lucilia cuprina was 100% throughout.

Regarding `Cn1nc(C(F)(F)C(F)(F)F)c(C(F)(F)F)c1-n1cc(-c2ccc(F)c(NC(=O)Cc3cccc(C(F)(F)F)c3)c2)cn1` [Example 1-116], the “efficacy (laying of fertile eggs)” value with Boophilus microplus was 100%. In addition, the “efficacy (kill in %)” value with Ctenocephalides felis and in the assay with Lucilia cuprina was 100% each time. Further, the efficacy in the assay with Phaedon cochleariae (application rate 100 g/ha) was 100%; in the assay on Spodoptera frugiperda (application rate 100 g/ha) it was 83%.

In the case of `Cn1nc(C(F)(F)C(F)(F)F)c(C(F)(F)F)c1-n1cc(-c2ccc(F)c(NC(=O)Cc3cccc(F)c3)c2)cn1` [Example 1-121], the efficacy in the assay with Rhipicephalus sanguineus (setting [1]), with Phaedon cochleariae (application rate 100 g/ha), with Spodoptera frugiperda (application rate 100 g/ha) and with Tetranychus urticae was 100% each time. In addition, the “efficacy (laying of fertile eggs)” value in the assay on Boophilus microplus came out at 100%. The “efficacy (kill in %)” value in the assay on Ctenocephalides felis and in the assay on Lucilia cuprina was 100% each time.

Source of the values: patent US10273226B2, “Pyrazolyl-heteroarylamides as pesticides” (Bayer Animal Health GmbH, priority 2014, dated 2019).
